Tests used:
[1] = test system: lung cancer cell line H1373 (high expression of PARP7); experiment: Lung cancer cell proliferation inhibition experiment (CTG method); assay type: cell-based; settings: H1373 cells, 144 hrs incubation, Cell Titer Glo
[2] = molecular target: PARP7 enzyme (Homo sapiens (Human), UniProt Q7Z3E1); experiment: PARP7 enzymatic experiment (HTRF assay); assay type: biochemical; settings: 4PL fit
Chain of PARP7 enzyme (Q7Z3E1 456-657): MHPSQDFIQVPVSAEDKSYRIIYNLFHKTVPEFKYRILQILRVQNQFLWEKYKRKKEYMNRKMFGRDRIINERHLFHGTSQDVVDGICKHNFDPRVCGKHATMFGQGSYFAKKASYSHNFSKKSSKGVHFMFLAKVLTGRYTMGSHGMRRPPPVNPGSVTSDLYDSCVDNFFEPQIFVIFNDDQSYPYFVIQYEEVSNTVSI

IC50 ([1]; Homo sapiens, NCI-H1373, 144 h)	SMILES	IC50 [2]	IC50 [1]
	CC(C)N1C(=O)[C@H]2CN(C(=O)CCOC[C@H](C)Nc3cn[nH]c(=O)c3C(F)(F)F)CCN2c2ncc(C(F)(F)F)cc21 (single isomer, unassigned) [Compound 24B]	0.00317 µM	
	COC[C@@H](COCCC(=O)N1CCN2c3ncc(C(F)(F)F)cc3OC[C@H]2C1)Nc1cn[nH]c(=O)c1C(F)(F)F (single isomer, unassigned) [Compound 66A]	0.00205 µM	0.0855 µM
	COC[C@@H](COCCC(=O)N1CCN2c3ncc(C(F)(F)F)cc3OC[C@@H]2C1)Nc1cn[nH]c(=O)c1C(F)(F)F (single isomer, unassigned) [Compound 66B]	0.00182 µM	0.0704 µM
	CC(=O)c1c(N[C@@H](C)COCCC(=O)N2CCN3c4ncc(C(F)(F)F)cc4OCC[C@H]3C2)cn[nH]c1=O (single isomer, unassigned) [Compound 70A]	0.0015 µM	0.0287 µM
	CC(=O)c1c(N[C@@H](C)COCCC(=O)N2CCN3c4ncc(C(F)(F)F)cc4OCC[C@@H]3C2)cn[nH]c1=O (single isomer, unassigned) [Compound 70B]	0.00754 µM	0.342 µM
	C[C@@H](COCCC(=O)N1CCN2c3ncc(C(F)(F)F)cc3SCC[C@H]2C1)Nc1cn[nH]c(=O)c1C(F)(F)F (single isomer, unassigned) [Compound 71B]	0.0149 µM	0.912 µM
	C[C@@H](COCCC(=O)N1CCN2c3ncc(Br)cc3SCC[C@H]2C1)Nc1cn[nH]c(=O)c1C(F)(F)F (single isomer, unassigned) [Compound 72A]	0.000837 µM	0.0133 µM
	C[C@@H](COCCC(=O)N1CCN2c3ncc(Br)cc3SCC[C@@H]2C1)Nc1cn[nH]c(=O)c1C(F)(F)F (single isomer, unassigned) [Compound 72B]	0.00724 µM	
	C[C@@H](COCCC(=O)N1CCN2c3ncc(Cl)cc3SCC[C@H]2C1)Nc1cn[nH]c(=O)c1C(F)(F)F (single isomer, unassigned) [Compound 73B]	0.0179 µM	
	C[C@@H](COCCC(=O)N1CCN2c3ncc(C(F)(F)F)cc3C(=O)C[C@@H]2C1)Nc1cn[nH]c(=O)c1C(F)(F)F (single isomer, unassigned) [Compound 76A]	0.00331 µM	0.36 µM
	C[C@@H](COCCC(=O)N1CCN2c3ncc(C(F)(F)F)cc3C(=O)C[C@H]2C1)Nc1cn[nH]c(=O)c1C(F)(F)F (single isomer, unassigned) [Compound 76B]	0.00504 µM	0.404 µM
	C[C@@H](COCCC(=O)N1CCN2c3ncc(C(F)(F)F)cc3C(F)(F)C[C@@H]2C1)Nc1cn[nH]c(=O)c1C(F)(F)F (single isomer, unassigned) [Compound 77A]	0.0126 µM	0.349 µM
	C[C@@H](COCCC(=O)N1CCN2c3ncc(C(F)(F)F)cc3C(F)(F)C[C@H]2C1)Nc1cn[nH]c(=O)c1C(F)(F)F (single isomer, unassigned) [Compound 77B]	0.004 µM	0.334 µM
	COc1ccc(Cn2ncc(N3CC[C@H]3COCCC(=O)N3CCN4c5ncc(C(F)(F)F)cc5N(C)C(=O)[C@@H]4C3)c(C(F)(F)F)c2=O)cc1 (single isomer, unassigned) [Compound 87A]		0.0058 µM
	COc1ccc(Cn2ncc(N3CC[C@H]3COCCC(=O)N3CCN4c5ncc(C(F)(F)F)cc5N(C)C(=O)[C@H]4C3)c(C(F)(F)F)c2=O)cc1 (single isomer, unassigned) [Compound 87B]		0.00535 µM
	C[C@@H]1C[C@@H]2CN(C(=O)CCOC[C@@H]3CCN3c3cn[nH]c(=O)c3C(F)(F)F)CCN2c2ncc(C(F)(F)F)cc21 (single isomer, unassigned) [Compound 94A]	0.00237 µM	0.00851 µM
	C[C@@H]1C[C@H]2CN(C(=O)CCOC[C@@H]3CCN3c3cn[nH]c(=O)c3C(F)(F)F)CCN2c2ncc(C(F)(F)F)cc21 (single isomer, unassigned) [Compound 94B]	0.00294 µM	0.0133 µM
	C[C@@H](COCCC(=O)N1CCN2c3ncc(C(F)(F)F)cc3NC(=O)CC2C1)Nc1cn[nH]c(=O)c1C(F)(F)F (stereo partly drawn) [Compound 1A]	0.0343 µM	
0.203 µM	C[C@@H](COCCC(=O)N1CCN2c3ncc(C(F)(F)F)cc3N(CC(F)(F)F)C(=O)C2C1)Nc1cn[nH]c(=O)c1C(F)(F)F (stereo partly drawn) [Compound 8]		
	C[C@@H](COCCC(=O)N1CCc2c(c(=O)n(C)c3cc(C(F)(F)F)cnc23)C1)Nc1cn[nH]c(=O)c1C(F)(F)F [Compound 12]	0.00292 µM	
	C[C@@H](COCCC(=O)N1CCN2c3nc(F)c(Cl)cc3N(C)C(=O)[C@H]2C1)Nc1cn[nH]c(=O)c1C(F)(F)F [Compound 14B]	0.0399 µM	
	C[C@@H](COCCC(=O)N1CCN2c3ncc(C(F)(F)F)cc3N(C)C(=O)[C@@H]2C1)Nc1cn[nH]c(=O)c1Cl [Compound 31A]	0.0258 µM	
	C[C@@H](COCCC(=O)N1CCN2c3ncc(C(F)(F)F)cc3N(C)C(=O)[C@H]2C1)Nc1cn[nH]c(=O)c1Cl [Compound 31B]	0.059 µM	
	C[C@@H](COCCC(=O)N1CCN2c3ncc(C(F)(F)F)cc3N(C)C(=O)[C@@H]2C1)Nc1cn[nH]c(=O)c1Br [Compound 32A]	0.00825 µM	

IC50 ([1]; Homo sapiens, NCI-H1373, 144 h)	SMILES	IC50 [2]	IC50 [1]
	C[C@@H](COCCC(=O)N1CCN2c3ncc(C(F)(F)F)cc3N(C)C(=O)[C@H]2C1)Nc1cn[nH]c(=O)c1Br [Compound 32B]	0.02 µM	
0.203 µM	C[C@@H](COCCC(=O)N1CCN2c3ncc(C(F)(F)F)cc3NCCC2C1)Nc1cn[nH]c(=O)c1C(F)(F)F (stereo partly drawn) [Compound 37]		
0.108 µM	C[C@@H](COCCC(=O)N1CCN2c3ncc(C(F)(F)F)cc3N(C)CC2C1)Nc1cn[nH]c(=O)c1C(F)(F)F (stereo partly drawn) [Compound 39]		
0.26 µM	C[C@@H](COCCC(=O)N1CCN2c3ncc(C(F)(F)F)cc3N(C)CCC2C1)Nc1cn[nH]c(=O)c1C(F)(F)F (stereo partly drawn) [Compound 40]		
0.276 µM	C[C@@H](COCCC(=O)N1CCn2c(cc3cc(C(F)(F)F)cnc32)C1)Nc1cn[nH]c(=O)c1C(F)(F)F [Compound 41]		
0.138 µM	C[C@@H](COCCC(=O)N1CCn2c(c(Cl)c3cc(C(F)(F)F)cnc32)C1)Nc1cn[nH]c(=O)c1C(F)(F)F [Compound 42]		
0.105 µM	Cc1c2n(c3ncc(C(F)(F)F)cc13)CCN(C(=O)CCOC[C@H](C)Nc1cn[nH]c(=O)c1C(F)(F)F)C2 [Compound 43]		
0.185 µM	C[C@@H](COCCC(=O)N1CCn2c(nc3cc(C(F)(F)F)cnc32)C1)Oc1cn[nH]c(=O)c1C(F)(F)F [Compound 49A]		
0.296 µM	C[C@@H](COCCC(=O)N1CCN2c3ncc(C(F)(F)F)cc3OC[C@H]2C1)Nc1cn[nH]c(=O)c1C(F)(F)F [Compound 53A]		
0.214 µM	C[C@@H](COCCC(=O)N1CCN2c3ncc(C(F)(F)F)cc3OC[C@@H]2C1)Nc1cn[nH]c(=O)c1C(F)(F)F [Compound 53B]		
0.0797 µM	C[C@@H](COCCC(=O)N1CCN2c3ncc(C(F)(F)F)cc3OCC2C1)Nc1cn[nH]c(=O)c1C(F)(F)F (stereo partly drawn) [Compound 53]		
0.0636 µM	C[C@@H](COCCC(=O)N1CCN2c3ncc(C(F)(F)F)cc3OCCC2C1)Nc1cn[nH]c(=O)c1C(F)(F)F (stereo partly drawn) [Compound 54]		
	C[C@@H](COC[C@H](O)C(=O)N1CCN2c3ncc(Cl)cc3OCCC2C1)Nc1cn[nH]c(=O)c1C(F)(F)F (stereo partly drawn) [Compound 64B]	0.00946 µM	
	C[C@@H](COCCC(=O)N1CCN2c3ncc(C(F)(F)F)cc3[S@+]([O-])CC[C@@H]2C1)Nc1cn[nH]c(=O)c1C(F)(F)F [Compound 74A]	0.00216 µM	
	C[C@@H](COCCC(=O)N1CCN2c3ncc(C(F)(F)F)cc3[S@+]([O-])CC[C@H]2C1)Nc1cn[nH]c(=O)c1C(F)(F)F [Compound 74B]	0.00223 µM	
	C[C@@H](COCCC(=O)N1CCN2c3ncc(C(F)(F)F)cc3[S@@+]([O-])CC[C@@H]2C1)Nc1cn[nH]c(=O)c1C(F)(F)F [Compound 74C]	0.0554 µM	
	C[C@@H](COCCC(=O)N1CCN2c3ncc(C(F)(F)F)cc3[S@@+]([O-])CC[C@H]2C1)Nc1cn[nH]c(=O)c1C(F)(F)F [Compound 74D]	0.0722 µM	
	C[C@@H](COCCC(=O)N1CCN2c3ncc(C(F)(F)F)cc3S(=O)(=O)CC[C@@H]2C1)Nc1cn[nH]c(=O)c1C(F)(F)F [Compound 75A]	0.00364 µM	
	C[C@@H](COCCC(=O)N1CCN2c3ncc(C(F)(F)F)cc3S(=O)(=O)CC[C@H]2C1)Nc1cn[nH]c(=O)c1C(F)(F)F [Compound 75B]	0.0135 µM	
	C[C@@H](COCCC(=O)N1CCN2c3ncc(C(F)(F)F)cc3C(C)(O)CC2C1)Nc1cn[nH]c(=O)c1C(F)(F)F (stereo partly drawn) [Compound 78]	0.00283 µM	
	C[C@H](COCCC(=O)N1CCN2c3ncc(C(F)(F)F)cc3N(C)C(=O)[C@@H]2C1)Oc1cn[nH]c(=O)c1C(F)(F)F [Compound 81C]		0.0192 µM
	C[C@H](COCCC(=O)N1CCN2c3ncc(C(F)(F)F)cc3N(C)C(=O)[C@H]2C1)Oc1cn[nH]c(=O)c1C(F)(F)F [Compound 81D]		0.0123 µM
	CC(COCCC(=O)N1CCN2c3ncc(Cl)cc3OCCC2C1)Oc1cn[nH]c(=O)c1C(F)(F)F (stereo not drawn) [Compound 84]	0.00401 µM	

SMILES	IC50 ([1]; Homo sapiens, NCI-H1373, 144 h)	IC50 [2]	IC50 [1]
C[C@@H](COCCC(=O)N1CCN2c3ncc(F)cc3N(C)C(=O)[C@@H]2C1)Nc1cn[nH]c(=O)c1C(F)(F)F (single isomer, unassigned) [Compound 19A]	0.269 µM	0.0017 µM	
C[C@@H](COCCC(=O)N1CCN2c3ncc(Cl)cc3N(C)C(=O)[C@H]2C1)Nc1cn[nH]c(=O)c1C(F)(F)F (single isomer, unassigned) [Compound 20B]	0.0574 µM	0.00185 µM	
CCN1C(=O)[C@@H]2CN(C(=O)CCOC[C@H](C)Nc3cn[nH]c(=O)c3C(F)(F)F)CCN2c2ncc(Br)cc21 (single isomer, unassigned) [Compound 23A]	0.117 µM	0.000804 µM	
CC(C)N1C(=O)[C@@H]2CN(C(=O)CCOC[C@H](C)Nc3cn[nH]c(=O)c3C(F)(F)F)CCN2c2ncc(C(F)(F)F)cc21 (single isomer, unassigned) [Compound 83A]	0.143 µM	0.00379 µM	
CC(C)N1C(=O)[C@H]2CN(C(=O)CCOC[C@H](C)Nc3cn[nH]c(=O)c3C(F)(F)F)CCN2c2ncc(C(F)(F)F)cc21 (single isomer, unassigned) [Compound 83B]	0.468 µM	0.00364 µM	

Reference: patent publication US20240336629A1, “Tricyclic Derivatives Useful As PARP7 Inhibitors” (JACOBIO PHARMACEUTICALS CO., LTD., priority 2021, published 2024)
